According to US8507547B2, “Anti-fatigue agents and oral compositions containing andrographolide as active ingredient” (Suntory Holdings Limited, priority 2007, dated 2013):

What was measured:
Type in all cases: in vivo
Sprague Dawley rats = test: Forced exercise test (amount of spontaneous exercise after treadmill exercise stress); conditions: 2 mg per kilogram of body weight orally after 3 hours treadmill exercise stress; FIG. 3
Procedure: The third test is measurement of an amount of spontaneous exercise in a forced exercise test. This is described in detail below in Example 3. Rats were forced to exercise on a treadmill, and thereafter the test substance was administered. Then, the amount of spontaneous exercise of the animal was measured. Since this animal model is an exercise fatigue (physical fatigue) model, anti-fatigue action against physical fatigue would be confirmed if increase in the amount of spontaneous exercise is observed after the administration of the test substance. Such anti-fatigue action is considered to be involved in improving endurance and exercise performance.
Six-week-old male Sprague Dawley rats were used as a test animal. On the day before the test was started, the rats were divided into five groups each having eight rats, and all of the rats were deprived of food since the morning of the test day. […] Thereafter, the rats were moved into a spontaneous exercise measuring device having an infrared sensor (Supermex, Muromachi Kikai Co., Ltd.), and an amount of spontaneous exercise was measured during a period of 0-2 hours (exploration) and a period of 2-14 hours (dark period). […]

Balb/c mice = test: Water-immersion and sleep-disturbance test (weight-loaded forced swimming test, swimming time)
Excerpt: The first test is measurement of a swimming time in a water-immersion and sleep-disturbance test. This is described in detail below in Example 1. Mice raised in an environment, such as a water-immersed environment, where they were not allowed to take enough sleep or to take a comfortable posture so that they could take neither physical nor mental rest were weighted and forced to swim, and a length of time that passed until noses of the mice sank under the water for a period of 10 seconds or longer was measured (weight-loaded forced swimming test) to determine their fatigue level.
That is to say, since this animal model is a physical and mental fatigue model as well as an organ fatigue model described below, anti-fatigue action against physical and/or mental fatigue would be confirmed if the swimming time becomes longer as a result of administration of the test substance. Such anti-fatigue action is considered to be involved in reduction in fatigue stress, maintenance of physical energy under fatigue conditions (enhancement of body strength), improvement in endurance, and the like.
Effect of andrographolide on fatigue from water immersion and sleep disturbance was examined using a partially modified method of Tanaka et al. (Neuroscience Let. 352, 159-162, 2003). […] Four out of the five groups were reared as water-immersed groups; the groups were kept in cages in such a manner that each of the cages was filled with tap water at 23° C. with a water depth of 7 mm, instead of a floor covering, so that the mice were immersed in water and deprived of sleep. The mice were immersed in water for two days, andrographolide (Aldrich corp., purity 98%) was forcibly administered orally to the mice with doses of 0.5, 2, 8 mg per kilogram of body weight once daily during the two days (water-immersed and andrographolide-administered group). As a control group, one of the groups was immersed in water for two days, and distilled water was forcibly given orally to the group once daily during the two days (water-immersed control group). The remaining one of the five groups was reared as a normally-reared group; this group was kept in a cage with a normal floor covering, and distilled water was forcibly given orally to the group once daily during the two-day rearing (normally-reared control group). After the two days, each of the mice was provided with a weight corresponding to 8% of its body weight, which weight was attached to its tale, and then the mice were forced to swim in a water tank having a diameter of 18 cm and filled with water having a depth of 30 cm. A length of time that passed until the mice sank under water for a period of 10 seconds or longer (swimming time) was measured (weight-loaded forced swimming test).
The swimming time of the mice of the water-immersed group was shorter than that of the mice of the normally-reared group because of fatigue from the water immersion and sleep disturbance. The effect of andrographolide on the fatigue from the water immersion and sleep disturbance was examined by determining recovery of a reduction in the swimming time of the mice of the water-immersed group after the administration of andrographolide.
In accordance with the procedure described in Example 1, effect on water-immersion and sleep-disturbance fatigue was examined in a case in which andrographolide was administered alone to mice, a case in which alpha-lipoic acid was administered alone to mice, and a case in which a combination of andrographolide and alpha-lipoic acid was administered to mice. Eight-week-old male Balb/c mice were used as a test animal. […] Four out of the five groups served as water-immersed groups, and each of the groups was kept in a cage filled with tap water at 23° C. with a water depth of 7 mm, instead of a floor covering, so that the mice were immersed in water and deprived of sleep. […]

[1] = Safety of administered andrographolide (1000 mg per kilogram of body weight); conditions: 1000 mg of andrographolide per kilogram of body weight
Procedure: Andrographis paniculata containing andrographolide has conventionally been taken in orally and is considered to be infinitely safe. […] It should be noted, however, that there is a report saying that, when an infusion (0.5 g per mouse) or a water extract (1 g of crude drug per mouse) of Andrographis paniculata was injected into abdominal cavities of two mice, they died within 24 hours (Chuyakudaijiten, First Issue, Vol. 3). […] Accordingly, the andrographolide in the composition of the present invention is an active ingredient that is infinitely safe. Thus the amount of andrographolide to be contained is not particularly limited, as long as the amount is adequate to produce a desired effect and not to be toxic; the amount can be appropriately determined according to targets, pathological condition and the stage of illness, impact on taste (slightly bitter), and other factors.

For C=C1CC[C@@H]2[C@](C)(CO)[C@H](O)CC[C@@]2(C)[C@@H]1C/C=C1/C(=O)OC[C@H]1O [andrographolide], the “amount of spontaneous exercise” value (Sprague Dawley rats) was “increase in the amount of spontaneous exercise was observed”, the “reduction in the swimming time” value (Balb/c mice; 0.25 mg per kilogram of body weight orally once daily during two days of water immersion, FIG. 1(B)) was “prevented reduction in the swimming time” and the “reduction in the swimming time” value (Balb/c mice; 200 mg per kilogram of body weight orally once daily during two days of water immersion, FIG. 1(C)) was “prevented reduction in the swimming time”. The “toxicity to the mice” value (Balb/c mice; 200 mg per kilogram of body weight orally once daily for two days) was “no toxicity to the mice was observed”, the “reduction in the swimming time” value (Balb/c mice; 0.5, 2, 8 mg per kilogram of body weight orally once daily during two days of water immersion, FIG. 1(A)) was “prevented in a dose-dependent manner” and the “shortening of the swimming time” value (Balb/c mice; Example 5, FIG. 5, andrographolide 0.25 mg/kg (5a), alpha-lipoic acid 50 mg/kg (5b) or both (5c), orally once daily during two days of water immersion) was “prevented from shortening”. The “increase rate of the swimming time” value (Balb/c mice; Example 5, swimming time of normally-reared group minus water-immersed control group = 100%, andrographolide 0.25 mg/kg, alpha-lipoic acid 50 mg/kg, alone or combined) was 5% and the abnormality after administration [1] was “no abnormality was observed”.
